Like-named read-outs stand apart in the source and are kept apart here. Marks after values point to notes of the source that are not given here.
How the values were obtained:
Aβ12–23 = conditions: 50 µM compound, self-induced Aβ12–23 aggregation; mean ± SD; cited from earlier work
EeAChE [1] = target: T1, EeAChE (Electrophorus electricus, UniProt O42275); conditions: cited from earlier work
T1 construct: purchased Sigma–Aldrich

Aβ1–42 [2] = target: T2, Aβ1–42 (Homo sapiens, UniProt P05067); design: method as in PMID 26032855; conditions: 10 µM compound, self-induced; mean ± SD; cited from earlier work
T2 construct: Recombinant human HFIP-pretreated Aβ1–42 peptide; purchased Merck Millipore Lot number 2387442

EqBuChE [3] = target: T3, EqBuChE (Equus caballus, UniProt P81908); conditions: % inhibition at 50 μM lower than 50%; cited from earlier work
T3 construct: BuChE from equine serum (EqBuChE, Sigma–Aldrich); purchased Sigma–Aldrich; host or cells: equine serum

EeAChE [4] = target: T1, EeAChE; assay: biochemical; format: biochemical
Method: (§1) Ellman’s method was used to determine the activity of the synthesized compounds against AChE from electric eel (Electrophorus electricus, EeAChE) and BuChE from equine serum (EqBuChE).
(§2) All assays were performed in 0.1 M phosphate buffer pH 8.0. The tested compounds or water in a blank sample (25 µL) were incubated with the enzyme (20 µL) for 5 min at 25 °C in buffer (765 µL) prior to starting the reaction. Then, DTNB (20 µL) and ATC (20 µL) were added. […] Each condition was measured in triplicate. The percentages of enzyme inhibition were calculated from the equation 100%—Ai/A0 × 100%, where Ai is the absorbance of a sample with an inhibitor and A0 is the absorbance of a blank sample (100% activity of the enzyme). The IC50 values were calculated using GraphPad Prism 5. Data is expressed as mean ± SEM.

Aβ1–42 [5] = target: T2, Aβ1–42; assay: Thioflavin-T fluorometric assay of self-induced Aβ1–42 aggregation; format: biochemical; conditions: 10 µM compound, 1.5 µM Aβ1–42; mean ± SD; <10 = defined as not active; read-out: Aβ1–42 Aggreg. % of inhibition
Excerpt: Mechanisms of Aβ aggregation remain unclear. Besides the self-induced assembly of Aβ, several other factors affect its aggregation, including metal ions, AChE [45], and oxidative stress. Therefore, we evaluated our compounds using the most versatile and commonly used Aβ1–42 aggregation Thioflavin T assay. Seven structurally diverse compounds were selected (one from each subseries) to test their ability to inhibit self-induced Aβ1–42 aggregation.
Thioflavin-T (ThT) fluorometric assay was performed to investigate the effect of the test compounds on the self-aggregation of Aβ1–42. […] Each sample was prepared in quadruplicate, and the DMSO was always at 3%. To quantify amyloid fibril formation, the ThT fluorescence was measured through the bottom of the plate every 180 s at an excitation wavelength of 440 nm and emission wavelength of 490 nm, with the medium continuously shaking between measurements using a 96-well microplate reader (Synergy™ H4, BioTek Instruments, Inc., Winooski, VT, USA). […] The fluorescence intensities at the plateau in the absence and presence of the test compounds were averaged, and the average fluorescence of the corresponding wells at t = 0 h was subtracted.

EeAChE [6] = target: T1, EeAChE; assay: Kinetic characterization of EeAChE inhibition (Lineweaver–Burk, Cornish–Bowden plots); format: biochemical; conditions: Lineweaver–Burk and Cornish–Bowden plots, ATC 0.067–0.5 mM
Method: Both types of inhibition were further confirmed by Cornish–Bowden plots (S/V vs. [I]) (A. in Supplementary Materials).
To estimate the type of inhibition of EeAChE, the same experimental protocol as reported above (4.3.1) was performed. Different concentrations of the substrate ATC (0.067–0.5 mM) were used to create Lineweaver-Burk plots by plotting the inverse initial velocity (1/V) as a function of the inverse of the substrate concentration (1/[S]). The stock solution of ATC (0.5 mM in a well) was prepared in water and diluted before use to obtained 0.4, 0.3, 0.2, 0.1and 0.067 mM concentrations of substrate. The double reciprocal plots were assessed by a weighted least square analysis that assumed the variance of V to be a constant percentage of V for the entire data set. Each experiment was performed in triplicate. Then, to confirm the mode of inhibition, Cornish-Bowden plots were obtained by plotting S/V (substrate concentration/velocity ratio) versus the inhibitor concentration [I]. Data analysis was performed with GraphPad Prism 5.

[7] = PAMPA-BBB; for Log Pe: 2 h at 37 °C, means of two replicates; for Prediction of BBB penetration: class from log Pe
Method: For anti-Alzheimer drug candidates, the ability to cross the blood–brain barrier and to enter the central nervous system (CNS) is crucial to achieve their pharmacological target and activity.
The BBB-PAMPA Explorer Test System was purchased from pION Inc. The in vitro permeability through BBB-1 lipid membrane was determined for 7 commercial drugs and the tested compounds. The compounds were dissolved in DMSO (10 mM stock solution) and diluted with Prisma HT buffer (5 µL/1 mL). Then, the […] 96-well microplate was filled with solution of the tested compounds in buffer (200 µL/well). The filter membrane in acceptor 96-well microplate was impregnated with BBB-1 lipid solution (5 µL/well) and the acceptor plate was filled with Brain Sink Buffer (200 µL/well). The acceptor plate was carefully placed on the donor plate to form a sandwich that was left undisturbed for 2 h at 37 °C. After incubation, the donor plate was carefully removed. The concentration of compounds in the acceptor, the donor, and the reference wells were measured using EnSpire Multimode Microplate Reader (PerkinElmer).

EqBuChE [8] = target: T3, EqBuChE; assay: biochemical
Method: as §1, §2

T3 sequence (P81908 whole entry): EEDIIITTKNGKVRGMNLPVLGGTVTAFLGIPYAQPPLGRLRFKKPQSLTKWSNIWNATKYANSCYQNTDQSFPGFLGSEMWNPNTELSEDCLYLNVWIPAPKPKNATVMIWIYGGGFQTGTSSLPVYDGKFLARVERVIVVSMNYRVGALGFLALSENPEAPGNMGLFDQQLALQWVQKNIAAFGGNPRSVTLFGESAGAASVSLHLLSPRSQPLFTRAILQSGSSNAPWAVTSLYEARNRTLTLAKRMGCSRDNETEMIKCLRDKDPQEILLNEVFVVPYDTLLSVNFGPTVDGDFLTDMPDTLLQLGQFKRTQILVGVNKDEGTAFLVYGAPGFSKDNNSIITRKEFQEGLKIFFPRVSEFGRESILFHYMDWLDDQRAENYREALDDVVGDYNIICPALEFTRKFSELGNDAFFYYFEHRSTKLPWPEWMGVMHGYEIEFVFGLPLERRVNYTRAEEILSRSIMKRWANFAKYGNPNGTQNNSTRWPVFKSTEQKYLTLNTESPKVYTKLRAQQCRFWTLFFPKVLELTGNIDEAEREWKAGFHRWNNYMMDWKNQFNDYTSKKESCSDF
T1 sequence (O42275 24-633): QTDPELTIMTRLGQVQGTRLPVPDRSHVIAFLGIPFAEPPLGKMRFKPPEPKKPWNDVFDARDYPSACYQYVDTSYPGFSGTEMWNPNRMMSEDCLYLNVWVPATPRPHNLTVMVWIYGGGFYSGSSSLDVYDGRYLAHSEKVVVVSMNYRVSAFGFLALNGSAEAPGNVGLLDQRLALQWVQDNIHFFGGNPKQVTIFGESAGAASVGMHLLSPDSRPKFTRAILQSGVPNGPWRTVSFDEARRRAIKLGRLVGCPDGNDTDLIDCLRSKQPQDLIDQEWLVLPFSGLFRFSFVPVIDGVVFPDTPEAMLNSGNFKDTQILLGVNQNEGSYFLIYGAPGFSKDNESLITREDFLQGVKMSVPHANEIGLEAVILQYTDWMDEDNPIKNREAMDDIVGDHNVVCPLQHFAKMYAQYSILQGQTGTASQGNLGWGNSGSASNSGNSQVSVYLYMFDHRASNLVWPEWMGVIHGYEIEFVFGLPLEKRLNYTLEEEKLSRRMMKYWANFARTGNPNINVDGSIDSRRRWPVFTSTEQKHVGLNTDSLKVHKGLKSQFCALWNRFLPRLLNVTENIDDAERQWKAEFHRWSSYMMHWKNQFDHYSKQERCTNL
T2 sequence (P05067 672-713): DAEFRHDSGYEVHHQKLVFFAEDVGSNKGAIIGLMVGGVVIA

SMILES	Aβ12–23 aggregation % of inhibition (Aβ12–23)	IC50 (EeAChE [1])	Aβ1–42 Aggreg. % of inhibition (Aβ1–42 [2])	IC50 (EqBuChE [3])	IC50 (EeAChE [4])	inhibition at 10 µM (Aβ1–42 [5])	type of EeAChE inhibition (EeAChE [6])	Log Pe [7]	Prediction of BBB penetration [7]	IC50 (EqBuChE [8])
CCN(CC)CCCCCCCCN1C(=O)c2ccccc2C1=O [Compd. I]	30.10 ± 5.78 ^f %									
O=C1c2ccccc2S(=O)(=O)N1CCCCCNCc1ccccc1 [Compd. II]		36 ± 1 nM	22.19 ± 16.6%	> 50000 nM						
O=C1c2ccccc2C(=O)N1CCCCCCCCN1CCCC1 [Compound 4, 2-(8-(Pyrrolidin-1-yl)octyl)isoindoline-1,3-dione]					282 ± 11 nM	15.2 ± 3.06%	mixed type of enzyme inhibition	–4.0	CNS+ (CNS+, log Pe > −4.5, high permeability (i.e., can enter the CNS))	3240 ± 141 nM
O=C1c2ccccc2S(=O)(=O)N1CCCCCNCc1cccc(Cl)c1 [Compound 42, 2-(5-(3-chlorobenzylamino)pentyl)benzo[d]isothiazol-3(2H)-one 1,1-dioxide]					70 ± 1 nM	16.5 ± 3.01%	linear non-competitive type of inhibition	–4.3	CNS+ (CNS+, log Pe > −4.5, high permeability (i.e., can enter the CNS))	> 50000 nM
O=C1c2ccccc2C(=O)N1CCCCCCCN1CCCC1 [Compound 3, 2-(7-(Pyrrolidin-1-yl)heptyl)isoindoline-1,3-dione]					276 ± 3 nM		mixed type of enzyme inhibition			> 50000 nM
O=C1c2ccccc2C(=O)N1CCCCCCN1CCc2ccccc2C1 [Compound 11, 2-(6-(3,4-dihydroisoquinolin-2(1H)-yl)hexyl)isoindoline-1,3-dione]					387 ± 3 nM		mixed type of enzyme inhibition			5120 ± 90 nM
